Measured values reported in publication PMC2662877, “A novel method for screening the glutathione transferase inhibitors” (BMC Biochemistry, 2009).
pIC50, pKi: −log10 of the molar value. No end group written: not given here.

Columns and labels:
[1] = molecular target: T1, GST (Schistosoma japonicum, UniProt P08515); assay: biochemical; assay type: biochemical; settings: for Specific GST activity: mean ± SD of triplicate, control 2.80 ± 0.01; for order of inhibition efficiencies: with the use of CDNB or DCNB as the substrates, inhibitors 1 μM; for inhibition of GST activity, in words: control peptides, CDNB or DCNB as substrates
T1 construct: purchased Sigma-Aldrich
Method: Figure 3 Effects of F1 and F2 peptides on the activity of GST (μmol/mg/min). The activity was measured by monitoring the GST activity with different peptide concentrations, 1 mM glutathione (GSH) and 1 mM CDNB in 100 mM potassium phosphate buffer (pH6.5) at 25°C.
(§1) The peptide concentration resulting in 50% inhibition (IC50) was determined from a plot of remaining activity versus peptide concentration. Protein concentration was measured according to the Lowry method. Enzyme inhibitory kinetic studies were carried out using various concentrations of glutathione and CDNB and different concentrations of synthetic peptides (0.8, 1.6, 3.2 μM).

[2] = molecular target: T1, GST; assay: biochemical; assay type: biochemical; settings: inhibitor 1 μM, DCNB 1 mM, glutathione 1 mM, 25°C; for Specific GST activity: mean ± SD of triplicate, control 4.51 ± 0.02
[3] = test system: GST; settings: first-generation GST inhibitors; no reference given; cited from earlier work
From the text: (§2) The development of resistance to anticancer agents is a primary concern in cancer chemotherapy.

[4] = test system: cancer cell lines with increased GST expression; settings: ref [25]; cited from earlier work
From the text: as §2

[5] = binding of synthesized peptides to glutathione Sepharose 4B beads; settings: for binding to glutathione Sepharose 4B beads, in words: control peptides lacking glutathione-interacting residues
Method: The binding characteristics of selected peptides to glutathione were determined according to the analysis of binding of synthesized peptides to the glutathione Sepharose 4B beads. The amount of glutathione in the glutathione Sepharose 4B beads was estimated according to the assumption (according to the manufacturere's information) that there are about 200–400 μmol glutathione/g dried beads. An average value of 300 μmol glutathione/g dried beads was used to calculate the amount of glutathione in the glutathione Sepharose 4B beads. In our experiments, appropriate amount of wet glutathione Sepharose 4B beads (equal to 1 mg dry beads) was added to a 1.5 ml Eppendorf tube, and different amounts of synthesized peptides were added into the tube. After binding for 10 min at 37°C, the binding complexes were separated by centrifugation (12,000 × g for 10 min) and concentrations of bound and free peptides were determined by using the Lowry method. Scatchard analysis was used to determine the Kd and Bmax values. Bmax means the maximum binding sites of synthesized peptide on glutathione Speharose 4B beads (μmol peptide/μmol glutathione). Kd is a dissociation constant (pM). Thus, a low Kd value indicates a high affinity.

[6] = molecular target: T1, GST; assay: biochemical; assay type: biochemical; settings: for pKi: Ki; for effect on Vmax and Km, in words: changing glutathione and peptide concentrations
Method: To obtain information on the nature of the inhibition by F1 and F2 peptides, GST activity was measured with variable concentrations of glutathione. Here, we applied a new model in describing enzyme inhibitor (Fig. 4).
The Lineweaver-Burk plot for glutathione as the variable peptide concentration was applied to determine the types of inhibition caused by F1 and F2 peptides. The plot provides a useful graphical method for analysis of the Michaelis-Menten equation. The effects of the peptide on GST-catalyzed reaction kinetics were determined by analysis of apparent Vmax, inhibitor constant Ki and [I]/Ki values.
Figure 5 Lineweaver-Burk plot of the GST activity with varying glutathione (GSH) concentrations. A): The activity was measured with 1 mM CDNB, and different concentrations of GSH, and the F1 peptide. B): The activity was measured with 1 mM CDNB, and different concentrations of GSH, and the F2 peptide.
as §1

[7] = inhibitor 1 μM, CDNB 1 mM, glutathione 1 mM, 25°C, control 100%
[8] = inhibitor 1 μM, CDNB 1 mM, glutathione 1 mM, 25°C
[9] = control 100%, % sign missing in F1 cell
[10] = after elution with elution buffer
[11] = before elution, ratio of peptide concentrations after and before binding

T1 sequence (P08515 whole entry): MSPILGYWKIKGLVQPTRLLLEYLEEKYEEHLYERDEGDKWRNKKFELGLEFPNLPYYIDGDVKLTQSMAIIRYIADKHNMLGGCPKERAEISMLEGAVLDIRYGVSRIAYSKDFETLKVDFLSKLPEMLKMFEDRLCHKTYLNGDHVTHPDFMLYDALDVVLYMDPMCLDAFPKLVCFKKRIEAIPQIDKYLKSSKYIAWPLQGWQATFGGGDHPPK

Compound: Nc1c(S(=O)(=O)O)cc(Nc2ccc(Nc3nc(Cl)nc(Nc4ccccc4S(=O)(=O)O)n3)c(S(=O)(=O)O)c2)c2c1C(=O)c1ccccc1C2=O [cibacron blue]
- remaining activity at 1 µM [1, 7]: 18.3%
- Specific GST activity [1, 8]: 0.51 ± 0.01 units/mg
- order of inhibition efficiencies [1]: tannic acid > cibacron blue > F2 peptide > hematin > F1 peptide > ethacrynic acid
- remaining activity at 1 µM [2, 9]: 21.3%
- Specific GST activity [2]: 0.96 ± 0.01 units/mg

Compound: C=C(CC)C(=O)c1ccc(OCC(=O)O)c(Cl)c1Cl [ethacrynic acid]
- Specific GST activity [1, 8]: 1.54 ± 0.01 units/mg
- Specific GST activity [2]: 3.66 ± 0.02 units/mg
- outcome in clinical trials [3]: unsuccessful in clinical trials

Compound: C=CC1=C(C)c2cc3[n-]c(cc4[n-]c(cc5nc(cc1n2)C(C)=C5C=C)c(C)c4CCC(=O)O)c(CCC(=O)O)c3C.O.[Fe+2] [hematin]
- GST activity remaining, % of control [1, 7]: 35.2%
- Specific GST activity [1, 8]: 0.99 ± 0.01 units/mg
- order of inhibition efficiencies [1]: tannic acid > cibacron blue > F2 peptide > hematin > F1 peptide > ethacrynic acid
- GST activity remaining, % of control [2, 9]: 42.1%
- Specific GST activity [2]: 1.90 ± 0.02 units/mg

Compound: C=C[C@H]1C[N@@]2CC[C@H]1C[C@H]2[C@H](O)c1ccnc2ccc(OC)cc12 [quinine]
- reversal of resistance to melphalan and doxorubicin [4]: reported to reverse the resistance to melphalan and doxorubicin

Compound: GKIKGV [F3 peptide, control peptide F3, lacking Tyr6, Trp7 and Leu12]
- Binding efficiency [5, 10]: 1.2%
- Binding efficiency [5, 11]: 1.2%
- binding to glutathione Sepharose 4B beads, in words [5]: could not bind efficiently
- inhibition of GST activity, in words [1]: could not find any significant inhibition of the GST activity

Compound: GYWKIKGLV [F1 peptide]
- pIC50 [1]: 6.10
- pKi ([6]; F1 peptide 0.8 μM, noncompetitive): 5.40
- pKi ([6]; F1 peptide 1.6 μM, noncompetitive): 5.34
- pKi ([6]; F1 peptide 3.2 μM, noncompetitive): 5.24
- effect on Vmax and Km, in words [6]: Vmax decreased while Km remained unchanged

Compound: KWNKFELGLEFPL [F4 peptide, control peptide F4, lacking Arg41, Lys44 and Asn53 residues]
- Binding efficiency [5, 10]: 2.5%
- Binding efficiency [5, 11]: 2.6%
- binding to glutathione Sepharose 4B beads, in words [5]: could not bind efficiently
- inhibition of GST activity, in words [1]: could not find any significant inhibition of the GST activity

Compound: KWRNKKFELGLEFPNL [F2 peptide]
- pIC50 [1]: 6.22
- pKi ([6]; F2 peptide 0.8 μM, competitive): 5.82
- pKi ([6]; F2 peptide 1.6 μM, competitive): 5.80
- pKi ([6]; F2 peptide 3.2 μM, competitive): 5.62
- effect on Vmax and Km, in words [6]: Km decreased while Vmax remained unchanged

Compound: tannic acid
- GST activity remaining, % of control [1, 7]: 5.6%
- Specific GST activity [1, 8]: 0.16 ± 0.01 units/mg
- order of inhibition efficiencies [1]: tannic acid > cibacron blue > F2 peptide > hematin > F1 peptide > ethacrynic acid
- GST activity remaining, % of control [2, 9]: 10.9%
- Specific GST activity [2]: 0.49 ± 0.01 units/mg
